Active and inactive are the calls of the source. How the calls were made is not given here.
Legend:
[1] = test system: cell-based imaging, cytoskeleton assembly phenotype, high content; assay: cellular cytoskeleton assembly phenotype modulators – imaging, high-content imaging, retest and dose response, confirmation (AID 1249);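 further: compound exposure lasted 24 h before fixation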
[2] = as above; settings: cell-based imaging, cytoskeleton assembly phenotype, high content; cell count; at 10 µM; stronger effect = lower value

Compound | IC50 [1] | cell count [2]
CCCCCOc1ccc(Br)cc1/C(C)=N/NC1=NCCN1 | 5.97 µM | 19.4%
O=C(N/N=C/C(Br)=C/c1ccccc1)c1n[nH]c2c1CCC2 | 5 µM | 30.8%
Cc1cc(C)c(S(=O)(=O)Nc2ccc3c4c(cccc24)CC3)c(C)c1 | > 10 µM (inactive) | 78.5%
CC1CCC/C=C/C2CC(O)CC2C(O)/C=C/C(=O)O1 (configuration not stated) | > 10 µM (inactive) | 33.9%
CSc1nc(N(C)NC(=O)c2cccc(C)c2)c2ccccc2n1 | > 10 µM (inactive) | 31.6%
COc1ccc(OC)c(C2C3=C(COC3=O)Nc3cc4c(cc32)OCO4)c1 (configuration not stated) | > 10 µM (inactive) | 102%
O=S(=O)(c1ccc2c(c1)C(=NO)c1cc(S(=O)(=O)N3CCCCC3)ccc1-2)N1CCCCC1 | > 10 µM (inactive) | 126%
COC(=O)C[C@]1(C(=O)OC)CN(C#N)N(c2ccc(Cl)cc2)C12c1ccccc1-c1ccccc12 | > 10 µM (inactive) | 82%
O=C1CC(c2cc(Br)ccc2F)c2cc3c(cc2N1)CCC3 (configuration not stated) | > 10 µM (inactive) | 105%
CCN(CC)c1ccc2cc(-c3nc4ccccc4n3C)c(=O)oc2c1 | > 10 µM (inactive) | 99.7%
COc1ccc(-c2cc(C(F)(F)F)n3nc(C(=O)Nc4cc(C)on4)cc3n2)cc1OC | > 10 µM (inactive) | 92.1%
COc1ccc(-c2c/c(=N\c3nc(-c4ccccc4)c(C)s3)c3ccccc3o2)cc1O | > 10 µM (inactive) | 113%
CCC1=Nc2cc(C(=O)NCCCOC)ccc2Sc2ccccc21 | > 10 µM (inactive) | 29.1%
CCCOC(=O)c1[nH]c2c(c1C)C(=O)CC(c1cccs1)C2 (configuration not stated) | > 10 µM (inactive) | 40.1%
COC(=O)C1CN(C#N)N(c2ccc(Cl)cc2)C12c1ccccc1-c1ccccc12 (configuration not stated) | > 10 µM (inactive) | 85.3%
O=C(COc1ccccc1-c1ccccc1)N/N=C/c1cccc2ccccc12 | > 10 µM (inactive) | 85%
COc1cc2c3nnc(-c4ccc(F)cc4)c-3cn(Cc3ccccc3)c2cc1OC | > 10 µM (inactive) | 86.3%
O=C1C(=O)c2ccc(-c3ccccc3)cc2-c2ccccc21 | > 10 µM (inactive) | 111%

Compound | IC50 [1] | cell count [2]
COc1ccc(NC(=O)/C(Cl)=C(/Cl)S(=O)Cc2ccc(C)cc2)cn1 (configuration not stated) | > 10 µM (inactive) | 63.4%
CCN(CC)c1ccc(-c2nn3c(-c4ccccc4OC)nnc3s2)cc1 | 1.7 µM | 25.6%
CC(/C=N/NC(=O)c1cc(-c2ccc(Cl)cc2)nc2ccccc12)=C\c1ccco1 | > 10 µM (inactive) | 115%
CCSc1nc2ccccc2n1C(=O)/C=C\c1ccc(OC)c(OC)c1 | > 10 µM (inactive) | 111%
CCN(CC)c1ccc2c(c1)OC(N)=C(C#N)C2c1cccnc1 (configuration not stated) | 0.625 µM | 33.7%
CCN(CC)c1ccc2cc(-c3nc4ccccc4[nH]3)c(=O)oc2c1 | > 10 µM (inactive) | 96.6%
O=C(c1ccc(Br)cc1)c1cc([N+](=O)[O-])ccc1N1CCCCC1 | > 10 µM (inactive) | 81.7%
Cc1ccc(Nc2nc(-c3c(C)nc4ccccn34)cs2)cc1 | 1.37 µM | 31.8%
CC(C)Oc1ccccc1C1CC(=O)Nc2cc3c(cc21)OCO3 (configuration not stated) | > 10 µM (inactive) | 113%
Cc1ccc(NC2=C/C(=N\S(=O)(=O)c3cccs3)c3ccccc3C2=O)c(C)c1 | > 10 µM (inactive) | 79.8%
CC1=C([N+](=O)[O-])C(c2cccc(Br)c2)C2=C(N1)c1ccccc1C2=O (configuration not stated) | 2.65 µM | 30.8%
COc1ccc(NS(=O)(=O)c2cc(C)ccc2NC(=O)c2cc(C)oc2C)cc1 | > 10 µM (inactive) | 52%
COc1ccc(C2=Nn3c(nnc3-c3ccc(OC)cc3)SC2)cc1 | > 10 µM (inactive) | 91.1%
COc1ccccc1-n1cnc2cc(NCc3cccs3)ccc21 | 3.24 µM | 31.6%
CC(=O)Nc1ccc(S(=O)(=O)NC2(C(F)(F)F)C(=O)Nc3c2c(=O)[nH]c(=O)n3C)cc1 (configuration not stated) | > 10 µM (inactive) | 90.8%
Cc1ccc(C(=O)OCn2ncc(Cl)c(Cl)c2=O)cc1 | 3.08 µM | 1.4%
O=C(O)C1CCCCC1C(=O)Nc1cc(Cl)ccc1Cl (configuration not stated) | > 10 µM (inactive) | 94.2%
Cc1ccc(NC(=O)Cn2nnc(-c3ccccc3NC(=O)c3cccs3)n2)cc1 | > 10 µM (inactive) | 109%

— PubChem BioAssay AID1249 (Columbia University Molecular Screening Center, 2008)
